Read-outs that look alike come from different tables or passages of the source.
Tests used:
[1] = tested on: Eosinophil Number in Bronchoalveolar Lavage Fluid; assay: Antigen-induced increase in the eosinophil number in bronchoalveolar lavage fluid; assay type: in vivo, guinea pig; details: for suppression of eosinophil infiltration: summary of Table 77 to Table 79, bronchoalveolar lavage fluid
Description: Antigen-Induced Increase in the Eosinophil Number in Bronchoalveolar Lavage Fluid.
Bronchoalveolar lavage was performed with 10 mL of saline, after the animals were sensitized and challenged with antigen. The number of total cells in the recovered fluid was stained with Türk and counted using hemocytometer. *: P<0.05, **:P<0.01 vs Vehicle(Dunnett's test), ^##: P<0.01 vs Vehicle(Student's t test). ( ): inhibition %.

[2] = target: T1, PGD2 receptor (Homo sapiens, UniProt Q13258); assay: Binding activity to PGD2 receptor ([3H]PGD2, human platelet membrane fraction)
T1 construct: A suspension adjusted to contain the platelets at a final concentration of 5×10^8/ml was warmed at 37° C; endogenous in cells; host or cells: washed human platelets from a healthy volunteer
T1 sequence (Q13258 1-359): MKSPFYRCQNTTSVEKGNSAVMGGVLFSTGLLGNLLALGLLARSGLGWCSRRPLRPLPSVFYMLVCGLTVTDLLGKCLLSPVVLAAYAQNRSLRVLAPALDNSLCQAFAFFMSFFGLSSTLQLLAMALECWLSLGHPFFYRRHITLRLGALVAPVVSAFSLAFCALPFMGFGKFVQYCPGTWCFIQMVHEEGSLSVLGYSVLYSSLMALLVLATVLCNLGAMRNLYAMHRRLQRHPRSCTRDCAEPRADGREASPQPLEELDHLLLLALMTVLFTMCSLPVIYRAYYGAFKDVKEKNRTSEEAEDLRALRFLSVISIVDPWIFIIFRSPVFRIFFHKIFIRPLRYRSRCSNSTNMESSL
Description: Experiment 1 Binding Activity to PGD2 Receptor
(1) Preparation of Human Platelet Membrane Fraction
Blood was collected using a plastic syringe containing 3.8% sodium citrate from the vein of healthy volunteers (adult male and female), then put into a plastic test tube and mixed by slow-reversion. The sample was then centrifuged at 1800 rpm, for 10 min at room temperature, and the supernatant containing PRP (platelet-rich plasma) was collected. The PRP was re-centrifuged at 2300 rpm, for 22 min at room temperature to obtain platelets. The platelets were homogenized using a homogenizer (Ultra-Turrax) followed by centrifugation 3 times at 20,000 rpm, 10 min at 4° C. to obtain a platelet membrane fraction. After protein determination, the membrane fraction was adjusted to 2 mg/ml and preserved in a refrigerator at −80° C. until using for the binding test.
(2) Binding to PGD2 Receptor
To a binding-reaction solution (50 mM Tris/HCl, pH 7.4, 5 mM MgCl2) (0.2 ml) were added the human platelet membrane fraction (0.1 mg) and 5 nM [^3H]PGD2 (115 Ci/mmol), and the mixture was reacted at 4° C. for 90 min. After the reaction, the mixture was filtered through a glass fiber filter paper and washed several times with cooled physiological saline, then the radioactivity retained on the filter paper was measured. The specific-binding ratio was calculated by subtracting the non-specific binding ratio which is the radioactivity similarly measured in the presence of 10 μM PGD2 from the total binding. The inhibitory activity of each compound was expressed as the concentration required for 50% inhibition (IC50), which was determined by depicting a substitution curve by plotting the binding ratio (%) in the presence of each compound, where the binding ratio in the absence of a test compound is 100%.

[3] = tested on: TxA2 receptor; assay: Acceleration of vascular permeability of conjunctiva induced by U-46619 (Evans blue dye leakage); assay type: in vivo, guinea pig; details: for ED50 TXA2 (U-46619): oral, 1 h before challenge, 0.1% U-46619 instillation, conjunctival dye leakage, guinea pigs; for inhibition of the increase in vascular permeability in conjunctiva caused by U-46619: summary of Table 80, oral 1 h before challenge, guinea pig
Description: Acceleration of Vascular Permeability of Conjunctiva Induced by PGD2 and U-46619
Using male Hartley guinea pigs, PGD2- and TxA2 receptor-mediated increase in conjunctival vascular permeability was produced by instillation of each 10 μl solution of either 0.1% PGD2 or U-46619 (TXA2 receptor agonist) to the both eyes without anesthetization. Immediately after that, Evans blue dye (20 mg/kg) was intravenously injected. 30 min after the challenge, guinea pigs were sacrificed by bleeding under anesthesia with Pentobarbital (30 mg/kg, i.p.) and the tissue of conjunctiva was removed. The dye leaked into the tissue was extracted in formamide 3 ml at 60° C. for more than 24 h, and then centrifuged. The absorbance of the supernatant was measured at 620 nm. The amount of dye was calculated from the calibration curve of Evans blue dye. Each compound was suspended in 0.5% methyl-cellulose and administrated orally at 1 h before the challenge. The antagonistic activity was evaluated by the inhibition ratio against the dye leaked into conjunctiva caused by PGD2 or U-46619 at each dose and then a 50% effective dose of inhibition (ED50 value) of each compound was calculated.

[4] = 10 mg/kg, bronchoalveolar lavage fluid after antigen challenge
[5] = comparative experiment in accordance with Experiment 1, read-out: Experiment 1 Antagonistic activity against PGD2 receptor IC50

IC50 [2, 5] [nM]	IC50 ([2]; human platelet membrane fraction, read-out: Binding activity to PGD2 receptor in human platelet membrane fraction IC50) [nM]	Compound	Total cells [1, 4]	inhibition at 10 mg/kg ([1]; Cavia porcellus, Eosinophil, 10 mg/kg, bronchoalveolar lavage fluid after antigen challenge, read-out: inhibition % (total cells in bronchoalveolar lavage fluid) (converted)) [%]	suppression of eosinophil infiltration [1]	ED50 TXA2 (U-46619) [3] [mg/kg]	inhibition of the increase in vascular permeability in conjunctiva caused by U-46619 [3]	inhibition % (total cells in bronchoalveolar lavage fluid) [1, 4] [%]
> 10000	–	O=C(O)CCC/C=C\C[C@H]1[C@@H]2CC[C@@H](C2)[C@@H]1NS(=O)(=O)c1ccccc1 [A, reference compound]	15.20 ± 2.20 × 10^6 cells/animal	-12	did not show any inhibitory actions	0.017	suppressed	–
1.8	1.8	Cc1cccn1S(=O)(=O)c1ccc(C(=O)N[C@@H]2[C@@H](CCCC/C=C/C(=O)O)C[C@H]3C[C@@H]2C3(C)C)s1 [II-7I-55a]	12.26 ± 1.54 × 10^6 cells/animal	–	significantly suppressed	0.030	showed both responses	80
